Reference: ChEMBL document CHEMBL1641539 (Bioorg Med Chem Lett, 2011)

What was measured:
[1] = molecular target: MAP kinase-activated protein kinase 2 (Homo sapiens) (UniProt P49137); assay: Inhibition of human MAPKAP-K2 at 10 uM after 60 mins by TR-FRET assay; conditions: values are per cent of control
[2] = molecular target: Hepatocyte growth factor receptor (Homo sapiens) (UniProt P08581); assay: Inhibition of human Met at 10 uM after 60 mins by TR-FRET assay; conditions: values are per cent of control
[3] = molecular target: Dual specificity mitogen-activated protein kinase kinase 7 (Homo sapiens) (UniProt O14733); assay: Inhibition of human MKK7beta at 10 uM after 60 mins by TR-FRET assay; conditions: values are per cent of control
Sequence of Dual specificity mitogen-activated protein kinase kinase 7 (Homo sapiens) (O14733 whole entry): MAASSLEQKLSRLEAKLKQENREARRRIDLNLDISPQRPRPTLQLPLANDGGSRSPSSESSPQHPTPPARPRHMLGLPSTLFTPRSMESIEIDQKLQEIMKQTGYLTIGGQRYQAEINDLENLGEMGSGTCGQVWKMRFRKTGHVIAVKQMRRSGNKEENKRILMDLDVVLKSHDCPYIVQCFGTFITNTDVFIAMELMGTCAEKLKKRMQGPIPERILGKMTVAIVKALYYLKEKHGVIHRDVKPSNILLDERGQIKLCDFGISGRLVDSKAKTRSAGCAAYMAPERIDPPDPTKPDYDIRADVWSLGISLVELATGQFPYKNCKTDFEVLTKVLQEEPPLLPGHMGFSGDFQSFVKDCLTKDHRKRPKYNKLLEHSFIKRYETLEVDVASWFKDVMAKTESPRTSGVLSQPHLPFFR

[4] = molecular target: Tyrosine-protein kinase receptor TYRO3 (Homo sapiens) (UniProt Q06418); assay: Inhibition of human Rse at 10 uM after 60 mins by TR-FRET assay; conditions: values are per cent of control
Sequence of Tyrosine-protein kinase receptor TYRO3 (Homo sapiens) (Q06418 whole entry): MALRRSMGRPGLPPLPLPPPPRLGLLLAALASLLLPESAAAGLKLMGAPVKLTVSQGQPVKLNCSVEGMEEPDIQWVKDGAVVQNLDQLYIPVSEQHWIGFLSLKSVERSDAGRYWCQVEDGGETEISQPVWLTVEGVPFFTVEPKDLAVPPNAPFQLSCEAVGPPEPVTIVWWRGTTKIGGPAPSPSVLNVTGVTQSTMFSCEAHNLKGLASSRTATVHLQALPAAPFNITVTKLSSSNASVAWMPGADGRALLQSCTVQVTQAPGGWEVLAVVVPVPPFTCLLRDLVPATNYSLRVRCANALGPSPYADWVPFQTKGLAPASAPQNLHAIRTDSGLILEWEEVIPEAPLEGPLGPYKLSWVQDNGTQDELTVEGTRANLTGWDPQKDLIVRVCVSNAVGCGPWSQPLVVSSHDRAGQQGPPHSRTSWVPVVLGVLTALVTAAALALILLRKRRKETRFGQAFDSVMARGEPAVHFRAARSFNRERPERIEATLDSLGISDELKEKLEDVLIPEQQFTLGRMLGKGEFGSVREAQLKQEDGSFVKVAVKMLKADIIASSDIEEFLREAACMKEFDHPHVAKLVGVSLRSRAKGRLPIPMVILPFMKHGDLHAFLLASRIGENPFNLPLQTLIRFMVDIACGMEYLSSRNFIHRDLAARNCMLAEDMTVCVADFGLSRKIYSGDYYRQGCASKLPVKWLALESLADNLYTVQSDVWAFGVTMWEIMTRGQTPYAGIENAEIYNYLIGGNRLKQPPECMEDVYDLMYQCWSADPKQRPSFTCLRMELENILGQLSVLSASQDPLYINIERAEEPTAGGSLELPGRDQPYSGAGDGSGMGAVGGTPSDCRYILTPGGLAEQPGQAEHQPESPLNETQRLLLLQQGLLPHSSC

[5] = molecular target: High affinity nerve growth factor receptor (Homo sapiens) (UniProt P04629); assay: Inhibition of human TrkA at 10 uM after 60 mins by TR-FRET assay; conditions: values are per cent of control
Sequence of High affinity nerve growth factor receptor (Homo sapiens) (P04629 33-796 limits assumed): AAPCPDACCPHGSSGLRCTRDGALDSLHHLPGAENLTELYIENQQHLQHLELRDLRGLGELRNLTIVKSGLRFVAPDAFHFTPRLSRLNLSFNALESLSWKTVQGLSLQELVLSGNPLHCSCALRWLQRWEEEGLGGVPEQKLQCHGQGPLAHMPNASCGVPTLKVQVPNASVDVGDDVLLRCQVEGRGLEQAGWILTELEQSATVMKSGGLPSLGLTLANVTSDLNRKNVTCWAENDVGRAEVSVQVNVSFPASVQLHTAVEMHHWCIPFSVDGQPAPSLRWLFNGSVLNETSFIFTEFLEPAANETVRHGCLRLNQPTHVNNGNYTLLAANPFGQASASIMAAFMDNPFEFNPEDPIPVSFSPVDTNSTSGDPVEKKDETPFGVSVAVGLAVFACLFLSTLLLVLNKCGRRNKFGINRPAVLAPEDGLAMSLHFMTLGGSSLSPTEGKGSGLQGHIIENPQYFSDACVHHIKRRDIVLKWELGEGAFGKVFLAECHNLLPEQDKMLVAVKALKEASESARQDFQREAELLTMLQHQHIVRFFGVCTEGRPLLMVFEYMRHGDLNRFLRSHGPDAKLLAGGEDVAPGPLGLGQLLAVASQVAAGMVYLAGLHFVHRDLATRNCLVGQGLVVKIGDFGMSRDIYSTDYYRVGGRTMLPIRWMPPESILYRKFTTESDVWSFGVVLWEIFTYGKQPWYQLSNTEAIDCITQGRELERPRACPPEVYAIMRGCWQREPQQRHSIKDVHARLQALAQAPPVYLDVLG

[6] = molecular target: Tyrosine-protein kinase Fgr (Homo sapiens) (UniProt P09769); assay: Inhibition of human Fgr at 10 uM after 60 mins by TR-FRET assay; values are per cent of control
[7] = molecular target: Tyrosine-protein kinase ABL2 (Mus musculus) (UniProt Q4JIM5); assay: Inhibition of mouse Arg at 10 uM after 60 mins by TR-FRET assay; values are per cent of control
[8] = molecular target: Rhodopsin kinase GRK7 (Homo sapiens) (UniProt Q8WTQ7); assay: Inhibition of human GRK7 at 10 uM after 60 mins by TR-FRET assay; values are per cent of control
[9] = molecular target: Serine/threonine-protein kinase Sgk2 (Homo sapiens) (UniProt Q9HBY8); assay: Inhibition of human SGK2 at 10 uM after 60 mins by TR-FRET assay; values are per cent of control
Sequence of Serine/threonine-protein kinase Sgk2 (Homo sapiens) (Q9HBY8 whole entry): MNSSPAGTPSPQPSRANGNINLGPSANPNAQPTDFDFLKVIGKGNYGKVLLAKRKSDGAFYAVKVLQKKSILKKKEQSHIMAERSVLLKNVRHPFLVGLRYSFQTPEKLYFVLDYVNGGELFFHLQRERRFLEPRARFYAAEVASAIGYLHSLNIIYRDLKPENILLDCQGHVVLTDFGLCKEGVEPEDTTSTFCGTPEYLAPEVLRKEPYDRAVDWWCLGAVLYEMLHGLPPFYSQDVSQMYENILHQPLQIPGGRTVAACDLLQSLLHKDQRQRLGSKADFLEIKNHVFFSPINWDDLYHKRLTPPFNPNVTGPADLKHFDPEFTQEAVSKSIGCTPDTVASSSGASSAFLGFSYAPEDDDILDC

[10] = molecular target: Serine/threonine-protein kinase TAO2 (Homo sapiens) (UniProt Q9UL54); assay: Inhibition of human TAO2 at 10 uM after 60 mins by TR-FRET assay; values are per cent of control
Sequence of Serine/threonine-protein kinase TAO2 (Homo sapiens) (Q9UL54 whole entry): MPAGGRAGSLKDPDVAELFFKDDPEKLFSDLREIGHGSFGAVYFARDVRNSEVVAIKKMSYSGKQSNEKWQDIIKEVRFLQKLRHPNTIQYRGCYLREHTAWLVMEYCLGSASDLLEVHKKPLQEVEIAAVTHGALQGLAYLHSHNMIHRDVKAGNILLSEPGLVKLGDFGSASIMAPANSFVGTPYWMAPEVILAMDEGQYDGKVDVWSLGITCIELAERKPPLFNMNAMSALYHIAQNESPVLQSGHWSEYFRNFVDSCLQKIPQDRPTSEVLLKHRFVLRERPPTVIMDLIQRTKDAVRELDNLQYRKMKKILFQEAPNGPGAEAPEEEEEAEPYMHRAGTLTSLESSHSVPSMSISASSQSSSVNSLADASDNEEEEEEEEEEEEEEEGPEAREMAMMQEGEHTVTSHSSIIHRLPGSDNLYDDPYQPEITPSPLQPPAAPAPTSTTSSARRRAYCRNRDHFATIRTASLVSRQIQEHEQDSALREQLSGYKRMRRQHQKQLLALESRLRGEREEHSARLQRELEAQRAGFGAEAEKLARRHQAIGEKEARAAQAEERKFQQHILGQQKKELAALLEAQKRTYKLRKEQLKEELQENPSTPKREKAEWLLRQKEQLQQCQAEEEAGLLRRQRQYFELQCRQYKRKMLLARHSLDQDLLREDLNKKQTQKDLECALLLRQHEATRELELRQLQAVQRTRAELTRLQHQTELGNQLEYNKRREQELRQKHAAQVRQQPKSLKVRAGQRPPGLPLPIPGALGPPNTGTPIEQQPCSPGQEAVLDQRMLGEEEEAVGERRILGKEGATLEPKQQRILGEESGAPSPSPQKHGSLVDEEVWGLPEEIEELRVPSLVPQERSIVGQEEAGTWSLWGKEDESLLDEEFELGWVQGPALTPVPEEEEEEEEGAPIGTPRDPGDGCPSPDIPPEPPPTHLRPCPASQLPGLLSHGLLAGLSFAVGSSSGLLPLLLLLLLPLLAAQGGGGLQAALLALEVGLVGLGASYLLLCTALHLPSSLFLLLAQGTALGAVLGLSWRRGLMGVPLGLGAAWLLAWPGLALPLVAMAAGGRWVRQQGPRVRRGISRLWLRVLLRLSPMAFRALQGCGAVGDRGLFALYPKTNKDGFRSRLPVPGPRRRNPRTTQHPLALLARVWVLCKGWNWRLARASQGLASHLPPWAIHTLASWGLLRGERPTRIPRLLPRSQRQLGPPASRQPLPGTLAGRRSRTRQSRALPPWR

[11] = molecular target: Angiopoietin-1 receptor (Homo sapiens) (UniProt Q02763); assay: Inhibition of human Tie2 at 10 uM after 60 mins by TR-FRET assay; values are per cent of control
[12] = molecular target: Activin receptor type-1B (Homo sapiens) (UniProt P36896); assay: Inhibition of human ALK4 at 10 uM after 60 mins by TR-FRET assay; values are per cent of control
[13] = molecular target: 3-phosphoinositide-dependent protein kinase 1 (Homo sapiens) (UniProt O15530); assay: Inhibition of human PDK1 at 10 uM after 60 mins by TR-FRET assay; values are per cent of control
[14] = molecular target: Serine/threonine-protein kinase N2 (Homo sapiens) (UniProt Q16513); assay: Inhibition of human PRK2 at 10 uM after 60 mins by TR-FRET assay; values are per cent of control
[15] = molecular target: Serine/threonine-protein kinase Nek11 (Homo sapiens) (UniProt Q8NG66); assay: Inhibition of human NEK11 at 10 uM after 60 mins by TR-FRET assay; values are per cent of control
[16] = molecular target: Serine/threonine-protein kinase pim-1 (Homo sapiens) (UniProt P11309); assay: Inhibition of human Pim-1 at 10 uM after 60 mins by TR-FRET assay; values are per cent of control
Sequence of Serine/threonine-protein kinase pim-1 (Homo sapiens) (P11309 whole entry, looked up): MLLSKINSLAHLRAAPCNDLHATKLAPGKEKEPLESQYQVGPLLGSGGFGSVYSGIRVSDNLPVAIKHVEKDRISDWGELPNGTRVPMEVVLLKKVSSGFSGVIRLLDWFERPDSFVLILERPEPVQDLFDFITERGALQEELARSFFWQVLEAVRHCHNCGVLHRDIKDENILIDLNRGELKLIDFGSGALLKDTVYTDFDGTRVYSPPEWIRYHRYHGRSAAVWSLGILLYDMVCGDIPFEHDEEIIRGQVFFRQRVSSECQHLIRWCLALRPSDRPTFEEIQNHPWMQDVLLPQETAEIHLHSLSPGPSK

[17] = molecular target: Serine/threonine-protein kinase DCLK2 (Homo sapiens) (UniProt Q8N568); assay: Inhibition of human DCAMKL2 at 10 uM after 60 mins by TR-FRET assay; values are per cent of control
[18] = molecular target: Protein kinase C zeta type (Homo sapiens) (UniProt Q05513); assay: Inhibition of human PKCzeta at 10 uM after 60 mins by TR-FRET assay; values are per cent of control
[19] = molecular target: Inhibitor of nuclear factor kappa-B kinase subunit beta (Homo sapiens) (UniProt O14920); assay: Inhibition of human IKK-beta at 10 uM after 60 mins by TR-FRET assay; values are per cent of control
[20] = molecular target: Serine/threonine-protein kinase MRCK beta (Homo sapiens) (UniProt Q9Y5S2); assay: Inhibition of human MRCKbeta at 10 uM after 60 mins by TR-FRET assay; values are per cent of control
[21] = molecular target: Protein kinase C theta type (Homo sapiens) (UniProt Q04759); assay: Inhibition of human PKCtheta at 10 uM after 60 mins by TR-FRET assay; values are per cent of control
[22] = molecular target: Casein kinase I isoform gamma-3 (Homo sapiens) (UniProt Q9Y6M4); assay: Inhibition of human CK1gamma3 at 10 uM after 60 mins by TR-FRET assay; values are per cent of control
Sequence of Casein kinase I isoform gamma-3 (Homo sapiens) (Q9Y6M4 whole entry, looked up, canonical isoform): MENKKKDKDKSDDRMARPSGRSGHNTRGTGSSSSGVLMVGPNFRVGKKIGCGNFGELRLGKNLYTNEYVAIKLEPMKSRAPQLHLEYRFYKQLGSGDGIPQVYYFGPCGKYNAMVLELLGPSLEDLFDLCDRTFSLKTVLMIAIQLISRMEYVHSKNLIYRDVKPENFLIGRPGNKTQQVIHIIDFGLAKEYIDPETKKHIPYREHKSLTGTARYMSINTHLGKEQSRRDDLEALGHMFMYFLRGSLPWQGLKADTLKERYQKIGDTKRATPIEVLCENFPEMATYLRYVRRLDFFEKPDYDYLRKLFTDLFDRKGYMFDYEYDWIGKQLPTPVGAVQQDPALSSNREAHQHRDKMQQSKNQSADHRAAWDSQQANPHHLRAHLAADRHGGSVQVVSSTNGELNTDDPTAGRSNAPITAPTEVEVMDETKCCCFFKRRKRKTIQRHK

[23] = molecular target: CDK9/cyclin T1 (Homo sapiens) (UniProt O60563+P50750); assay: Inhibition of human CDK9/cyclin T1 at 10 uM after 60 mins by TR-FRET assay; values are per cent of control
[24] = tested on: Receptor-type tyrosine-protein kinase FLT3 (Homo sapiens), P36888 [D835Y]; assay: Inhibition of human Flt3 D835Y mutant at 10 uM after 60 mins by TR-FRET assay; values are per cent of control
[25] = tested on: Angiopoietin-1 receptor (Homo sapiens), Q02763 [R849W]; assay: Inhibition of human Tie2 R849W mutant at 10 uM after 60 mins by TR-FRET assay; values are per cent of control
[26] = tested on: Fibroblast growth factor receptor 1 (Homo sapiens), P11362 [V561M]; assay: Inhibition of human FGFR1 V561M mutant at 10 uM after 60 mins by TR-FRET assay; values are per cent of control
[27] = tested on: Mast/stem cell growth factor receptor Kit (Homo sapiens), P10721 [D816H]; assay: Inhibition of human c-Kit D816H mutant at 10 uM after 60 mins by TR-FRET assay; values are per cent of control
[28] = tested on: Platelet-derived growth factor receptor alpha (Homo sapiens), P16234 [V561D]; assay: Inhibition of human PDGFRalpha V561D mutant at 10 uM after 60 mins by TR-FRET assay; values are per cent of control

Sequence of MAP kinase-activated protein kinase 2 (Homo sapiens) (P49137 whole entry, looked up): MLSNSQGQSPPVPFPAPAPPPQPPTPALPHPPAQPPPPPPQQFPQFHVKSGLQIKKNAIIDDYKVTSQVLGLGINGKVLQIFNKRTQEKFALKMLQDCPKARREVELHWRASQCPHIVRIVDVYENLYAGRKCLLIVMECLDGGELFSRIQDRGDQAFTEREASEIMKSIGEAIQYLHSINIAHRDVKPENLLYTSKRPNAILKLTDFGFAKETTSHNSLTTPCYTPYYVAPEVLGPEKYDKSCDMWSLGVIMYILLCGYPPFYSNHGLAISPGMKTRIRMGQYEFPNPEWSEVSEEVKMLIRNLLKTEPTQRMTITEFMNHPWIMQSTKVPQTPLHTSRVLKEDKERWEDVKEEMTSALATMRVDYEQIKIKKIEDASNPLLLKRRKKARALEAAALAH

**Q.** How did the residual activity [1] turn out when `S=c1[nH]nc(-c2ccncc2)n1-c1ccc2ccccc2c1` was run?
**A.** 106%

**Q.** And the residual activity [2]?
**A.** 108%

**Q.** And the residual activity [3]?
**A.** 126%

**Q.** What about the residual activity [4] of the same compound?
**A.** 116%

**Q.** What about the residual activity [5] of the same compound?
**A.** 116%

**Q.** And the residual activity [6]?
**A.** 99%

**Q.** What about the residual activity [7] of the same compound?
**A.** 101%

**Q.** And the residual activity [8]?
**A.** 124%

**Q.** And the residual activity [9]?
**A.** 119%

**Q.** What about the residual activity [10] of the same compound?
**A.** 103%

**Q.** And the residual activity [11]?
**A.** 103%

**Q.** And the residual activity [12]?
**A.** 112%

**Q.** What about the residual activity [13] of the same compound?
**A.** 108%

**Q.** And the residual activity [14]?
**A.** 112%

**Q.** What about the residual activity [15] of the same compound?
**A.** 126%

**Q.** What about the residual activity [16] of the same compound?
**A.** 96%

**Q.** And the residual activity [17]?
**A.** 112%

**Q.** And the residual activity [18]?
**A.** 115%

**Q.** What about the residual activity [19] of the same compound?
**A.** 94%

**Q.** What about the residual activity [20] of the same compound?
**A.** 106%

**Q.** And the residual activity [21]?
**A.** 114%

**Q.** And the residual activity [22]?
**A.** 108%

**Q.** And the residual activity [23]?
**A.** 110%

**Q.** And the residual activity [24]?
**A.** 99%

**Q.** And the residual activity [25]?
**A.** 94%

**Q.** What about the residual activity [26] of the same compound?
**A.** 106%

**Q.** What about the residual activity [27] of the same compound?
**A.** 114%

**Q.** What about the residual activity [28] of the same compound?
**A.** 107%
